Our source for the IC50 values is US20240327392A1, “HETEROCYCLOALKYL-SUBSTITUTED POLYHETEROAZOLE DERIVATIVES AS MEDICAMENTS FOR TREATING AND/OR PREVENTING RS VIRUS INFECTIONS” (ALBIUS SCIENCES ALPHA PRIVATE LIMITED, priority 2021, published 2024).

The test system of the first assay is human RS virus A2 strain. As to the kind of experiment: In vitro test for anti-RS virus proliferation inhibitory activity (quantitative RT-PCR of RS virus RNA copy number in infected Vero cells). To be noted: 72 h; Vero cells infected with human RS virus A2 strain, 3 days of incubation, RS virus N gene RNA copy number by quantitative RT-PCR; read-out: Anti-RS virus Activity. The format is cell-based. The protocol: A mixture of Vero cells (3.4×10^5 cells/mL) and human RS virus A2 strain (1.7×10^4 TCID50/mL) (EMEM medium supplemented with 10% FCS) was added to a 96-well plate at 50 μL/well, and the 10% FCS-supplemented EMEM medium adjusted to the desired final concentration of the compounds to be tested was added at 50 μL/well, followed by incubating the plate at 37° C. in the presence of 5% CO2 at 37° C. After 3 days of incubation, the supernatant was removed, the cells were washed with PBS(−), and the cell lysis buffer supplied with the SingleShot (registered trademark) Cell Lysis Kit (Bio-Rad) was added dropwise at 50 μL/well to lysis the cells thereby providing the cell lysate.
Human RS virus RNA copy number in the cell lysate was determined by quantitative RT-PCR using iTaq Universal SYBR Green One-Step Kit (Bio-Rad). Specifically, primers targeting human RS virus N gene (Rameix-Welti et al, Nat Commun5: 5104, 2014. doi: 10.1038/ncomms6104) was used to prepare the reaction solution according to the instructions provided with the kit, and a 96-well PikoReal Real-Time PCR System (TCR0096, Thermo Fisher Scientific) was used to detect PCR reaction and signal assay.
The copy number was calculated by the relative method using the comparative Ct method using compound-free virus-infected cells as controls.
As for `CS(=O)(=O)N1CCCC[C@H]1c1nc(CCCc2ccccc2)no1` [Compound 2C, 3-(3-phenylpropyl)-5-[(2S)-1-methanesulfonylpiperidin-2-yl]-1,2,4-oxadiazole], the IC50 fell in the range of 10 to 50 µM. Same read-out and setting: for `O=S(=O)(C1CCCCC1)N1CCCC[C@H]1c1nc(CCCc2ccccc2)no1` [Compound 2B, 3-(3-phenylpropyl)-5-[(2S)-1-cyclohexylsulfonylpiperidin-2-yl]-1,2,4-oxadiazole] the value was under 10 µM; for `CC(C)CS(=O)(=O)N1CCC[C@H]1c1nc(CCCc2ccccc2)no1` [Compound 1A, 3-(3-phenylpropyl)-5-[(2S)-1-isobutylsulfonylpyrrolidin-2-yl]-1,2,4-oxadiazole], over 50 µM.

Still in this assay, the particulars now being: 72 h; Vero cells infected with human RS virus A2 strain, 3 days of incubation, RS virus RNA copy number by quantitative RT-PCR; read-out: Anti-RS virus Activity.
`O=S(=O)(N1CCCCC1)N1C[C@H](F)C[C@H]1c1nc(CCCc2ccccc2)no1` [Compound 8AD, 5-((2S,4R)-4-fluoro-1-(piperidin-1-ylsulfonyl)pyrrolidin-2-yl)-3-(3-phenylpropyl)-1,2,4-oxadiazole]: the IC50 was 10 to 50 µM. In the case of `CN(C)c1ccc(S(=O)(=O)N2C[C@H](F)C[C@H]2c2nc(CCCc3ccccc3)no2)cc1` [Compound 8AK, 4-(((2S,4R)-4-fluoro-2-(3-(3-phenylpropyl)-1,2,4-oxadiazole-5-yl)pyrrolidin-1-yl)sulfonyl)-N,N-dimethylaniline], the IC50 was under 10 µM. The same measure, in the same setting: under `CC(C)(C)OC(=O)N1C[C@H](c2ccccc2)C[C@H]1c1nc(CCc2ccccc2)no1` [Compound C2-7-1, Tert-butyl (2S,4S)-2-(3-phenethyl-1,2,4-oxadiazol-5-yl)-4-phenylpyrrolidine-1-carboxylate] stands 10 to 50 µM; under `O=S(=O)(Cc1ccccc1)N1CC(c2ccccc2)C[C@H]1c1nc(CCCc2ccccc2)no1` (stereo in doubt) [Compound 7E, 3-(3-Phenylpropyl)-5-[(2S,4S)-1-benzylsulfonyl-4-phenylpyrrolidin-2-yl]-1,2,4-oxadiazole], over 50 µM; under `CC(C)(C)NC(=O)N1CCC[C@H]1c1nc(CCCc2ccccc2)no1` [Compound 1H, (S)—N-(tert-butyl)-2-(3-(3-phenylpropyl)-1,2,4-oxadiazol-5-yl) pyrrolidine-1-carboxamide], over 50 µM. As to `CC(C)CS(=O)(=O)N1[C@@H]2CC[C@@H](C2)[C@H]1c1nnc(CCc2ccncc2)[nH]1` [Compound 25A, (1R,3S,4S)-2-(isobutylsulfonyl)-3-(5-(2-(pyridin-4-yl)ethyl)-4H-1,2,4-triazol-3-yl)-2-azabicyclo[2.2.1]heptane], the IC50 fell in the range of 10 to 50 µM. Same read-out and setting: under `CC(C)[C@@H]1CC[C@@H](C)C[C@H]1OC(=O)N1CCC[C@H]1c1nc(CCCc2ccccc2)no1` [Compound 1N, (−)-menthyl (S)-2-(3-(3-phenylpropyl)-1,2,4-oxadiazol-5-yl) pyrrolidine-1-carboxylate] stands 10 to 50 µM; under `CN(C)c1cccc2c(S(=O)(=O)N3CC(CC4CCC4)CC3c3nc(CCCc4ccccc4)no3)cccc12` (stereo not shown) [Compound 6AL, 5-((4-(cyclobuthylmethyl)-2-(3-(3-phenylpropyl)-1,2,4-oxadiazole-5-yl)pyrrolidin-1-yl)sulfonyl)-N,N-dimethylnaphthalen-1-amine], under 10 µM; under `O=C(Cc1ccccc1)N1CCC[C@H]1c1nc(CCCc2ccccc2)no1` [Compound 1P, (S)-2-Phenyl-1-(2-(3-(3-phenylpropyl)-1,2,4-oxadiazol-5-yl)pyrrolidin-1-yl) ethan-1-one], under 10 µM.

For the compound `CN(C)c1cccc2c(S(=O)(=O)N3C[C@H](c4ccccc4)C[C@H]3c3nc(CCCc4ccccc4)no3)cccc12` [Compound 7AL, N,N-dimethyl-5-(((2S,4S)-4-phenyl2-(3-(3-phenylpropyl)-1,2,4-oxadiazole-5-yl)pyrrolidin-1-yl)sulfonyl)naphthalen-1-amine], the IC50 is under 10 µM. Same read-out and setting: for `CC(C)(C)OC(=O)N1CCCC[C@H]1c1nc(CCc2ccccc2)no1` [Compound 10-1, 3-(3-phenylethyl)-5-[(2S)-1-tert-butoxycarbonylpiperidin-2-yl]-1,2,4-oxadiazole] the value was 10 to 50 µM; for `CC(C)(C)OC(=O)N1[C@@H]2CC[C@@H](C2)[C@H]1c1nnc(Cc2cc3ccccc3[nH]2)[nH]1` [Compound 28-1, Tert-butyl (1R,3S,4S)-3-(5-((1H-indol-2-yl)methyl)-4H-1,2,4-triazol-3-yl)-2-azabicyclo[2.2.1]heptane-2-carboxylate], 10 to 50 µM; for `CC(C)CS(=O)(=O)N1CC(c2ccccc2)C[C@H]1c1nc(CCCc2ccccc2)no1` (stereo in doubt) [Compound 7A, 3-(3-phenylpropyl)-5-[(2S,4S)-1-isobutylsulfonyl-4-phenylpyrrolidin-2-yl]-1,2,4-oxadiazole], under 10 µM. The same measure, in the same setting: under `CC(C)(C)OC(=O)N1C[C@H](c2ccccc2)C[C@H]1c1nnc(CCCc2ccccc2)[nH]1` [Compound 19-1, Tert-butyl (2S,4S)-4-phenyl-2-(5-(3-phenylpropyl)-4H-1,2,4-triazol-3-yl)pyrrolidine-1-carboxylate] stands under 10 µM. Same read-out and setting: under `O=C(c1ccccc1)N1CCC[C@H]1c1nc(CCCc2ccccc2)no1` [Compound 1S, (S)-Phenyl(2-(3-(3-phenylpropyl)-1,2,4-oxadiazol-5-yl)pyrrolidin-1-yl)methanone] stands under 10 µM; under `O=S(=O)(c1ccc(F)cc1)N1CC(CC2CCC2)CC1c1nc(CCCc2ccccc2)no1` (stereo not shown) [Compound 6AJ, 5-(4-(cyclobuthylmethyl)-1-((4-fluorophenyl)sulfonyl)pyrrolidin-2-yl)-3-(3-phenylpropyl)-1,2,4-oxsdiazole], under 10 µM. As for `CS(=O)(=O)N1CC(c2ccccc2)C[C@H]1c1nc(CCCc2ccccc2)no1` (stereo in doubt) [Compound 7C, 3-(3-phenylpropyl)-5-[(2S,4S)-1-methanesulfonyl-4-phenylpyrrolidin-2-yl]-1,2,4-oxadiazole], the IC50 was under 10 µM. Still for that read-out and setting: for `CC(C)CS(=O)(=O)N1CC2(CC2)C[C@H]1c1nc(CCCc2ccccc2)no1` [Compound 5A, 3-(3-phenylpropyl)-5-{(6S)-5-isobutylsulfonyl-5-azaspiro[2.4]hept-6-yl}-1,2,4-oxadiazole] the value was under 10 µM.

Consider `O=C(NCc1noc([C@@H]2C[C@@H](c3ccccc3)CN2S(=O)(=O)c2ccc(F)cc2)n1)c1cnc2ccccc2c1` [Compound 46AJ, N-((5-((2S,4S)-1-((4-fluorophenyl)sulfonyl)-4-phenylpyrrolidin-2-yl)-1,2,4-oxadiazol-3-yl)methyl)quinoline-3-carboxamide], for which the IC50 is 10 to 50 µM. On the same count and under the same terms, under `O=S(=O)(N1CCCCC1)N1CC2(CC2)C[C@H]1c1nc(CCCc2ccccc2)no1` [Compound 5AD, (S)-3-(3-phenylpropyl)-5-(5-(piperidin-1-ylsulfonyl)-5-azaspiro[2.4]heptan-6-yl)-1,2,4-oxadiazole] stands 10 to 50 µM.

In the case of `O=S(=O)(Cc1ccccc1)N1CC2(CC2)C[C@H]1c1nc(CCCc2ccccc2)no1` [Compound 5E, 3-(3-Phenylpropyl)-5-{(6S)-5-benzylsulfonyl-5-azaspiro[2.4]hept-6-yl}-1,2,4-oxadiazole], the IC50 was 10 to 50 µM. Still for that read-out and setting: under `CC(C)(C)OC(=O)N1CCCC[C@H]1c1nc(CCc2ccncc2)no1` [Compound 12-1, Tert-butyl (S)-2-(3-(2-(pyridin-4-yl)ethyl)-1,2,4-oxadiazol-5-yl)piperidine-1-carboxylate] stands under 10 µM; under `CC(C)(C)NC(=O)N1[C@@H]2CC[C@@H](C2)[C@H]1c1nnc(Cc2c[nH]c3ccccc23)[nH]1` [Compound 24H, (1R,3S,4S)-3-(5-((1H-indol-3-yl)methyl)-4H-1,2,4-triazol-3-yl)-N-(tert-butyl)-2-azabicyclo[2.2.1]heptane-2-carboxamide], 10 to 50 µM; under `CC(C)CC(=O)N1CCC[C@H]1c1nc(CCCc2ccccc2)no1` [Compound 1Q, (S)-3-Methyl-1-(2-(3-(3-phenylpropyl)-1,2,4-oxadiazol-5-yl)pyrrolidin-1-yl) butan-1-one], under 10 µM. Still for that read-out and setting: under `O=S(=O)(Cc1ccccc1)N1C[C@H](F)C[C@H]1c1nc(CCCc2ccccc2)no1` [Compound 8E, 3-(3-phenylpropyl)-5-[(2S,4R)-1-benzylsulfonyl-4-fluoropyrrolidin-2-yl]-1,2,4-oxadiazole] stands under 10 µM; under `CN(C)c1cccc2c(S(=O)(=O)N3C[C@H](F)C[C@H]3c3nc(CCCc4ccccc4)no3)cccc12` [Compound 8AL, 5-(((2S,4R)-4-fluoro-2-(3-(3-phenylpropyl)-1,2,4-oxadiazole-5-yl)pyrrolidin-1-yl)sulfonyl)-N,N-dimethylnaphthalen-1-amine], under 10 µM. Consider `c1ccc(CCCc2noc([C@@H]3CCCCN3CC3CCCCC3)n2)cc1` [Compound 2U, (S)-5-(1-(cyclohexylmethyl)piperidin-2-yl)-3-(3-phenylpropyl)-1,2,4-oxadiazole], for which the IC50 is under 10 µM.

Still in this assay, the particulars now being: Vero, 72 h, read-out: Anti-RS virus Activity.
For `S=C(NCc1ccccc1)N1C[C@H](c2ccccc2)C[C@H]1c1nc(CCCc2ccccc2)no1` [Compound 7AR, (2S,4S)—N-Benzyl-4-phenyl-2-(3-(3-phenylpropyl)-1,2,4-oxadiazol-5-yl) pyrrolidine-1-carbothioamide], the IC50 is 10 to 50 µM.
